Patent US20230115176A1 (Ra Pharmaceuticals, Inc., priority 2019, published 2023)

Molecular target: T1, Human C5 (Homo sapiens, UniProt P01031)
T1 construct: purchased Complement Technology
Assay: Red blood cell (RBC) hemolysis assay, luminescent (Example 13, Table 22); further: 1.5% C5-depleted human serum
Assay type: cell-based
Settings: sheep EA cells, […] C5-depleted human serum, 0.5 nM human C5, 1 hour 37° C., luminescence
Description: Compound CU0136 is a racemic mixture of Compound CU0186 and CU0187. Numbers in parenthesis following compound numbers indicate alternate enantiomers (as distinguished by retention time during chromatographical separation).

T1 sequence (P01031 19-1676): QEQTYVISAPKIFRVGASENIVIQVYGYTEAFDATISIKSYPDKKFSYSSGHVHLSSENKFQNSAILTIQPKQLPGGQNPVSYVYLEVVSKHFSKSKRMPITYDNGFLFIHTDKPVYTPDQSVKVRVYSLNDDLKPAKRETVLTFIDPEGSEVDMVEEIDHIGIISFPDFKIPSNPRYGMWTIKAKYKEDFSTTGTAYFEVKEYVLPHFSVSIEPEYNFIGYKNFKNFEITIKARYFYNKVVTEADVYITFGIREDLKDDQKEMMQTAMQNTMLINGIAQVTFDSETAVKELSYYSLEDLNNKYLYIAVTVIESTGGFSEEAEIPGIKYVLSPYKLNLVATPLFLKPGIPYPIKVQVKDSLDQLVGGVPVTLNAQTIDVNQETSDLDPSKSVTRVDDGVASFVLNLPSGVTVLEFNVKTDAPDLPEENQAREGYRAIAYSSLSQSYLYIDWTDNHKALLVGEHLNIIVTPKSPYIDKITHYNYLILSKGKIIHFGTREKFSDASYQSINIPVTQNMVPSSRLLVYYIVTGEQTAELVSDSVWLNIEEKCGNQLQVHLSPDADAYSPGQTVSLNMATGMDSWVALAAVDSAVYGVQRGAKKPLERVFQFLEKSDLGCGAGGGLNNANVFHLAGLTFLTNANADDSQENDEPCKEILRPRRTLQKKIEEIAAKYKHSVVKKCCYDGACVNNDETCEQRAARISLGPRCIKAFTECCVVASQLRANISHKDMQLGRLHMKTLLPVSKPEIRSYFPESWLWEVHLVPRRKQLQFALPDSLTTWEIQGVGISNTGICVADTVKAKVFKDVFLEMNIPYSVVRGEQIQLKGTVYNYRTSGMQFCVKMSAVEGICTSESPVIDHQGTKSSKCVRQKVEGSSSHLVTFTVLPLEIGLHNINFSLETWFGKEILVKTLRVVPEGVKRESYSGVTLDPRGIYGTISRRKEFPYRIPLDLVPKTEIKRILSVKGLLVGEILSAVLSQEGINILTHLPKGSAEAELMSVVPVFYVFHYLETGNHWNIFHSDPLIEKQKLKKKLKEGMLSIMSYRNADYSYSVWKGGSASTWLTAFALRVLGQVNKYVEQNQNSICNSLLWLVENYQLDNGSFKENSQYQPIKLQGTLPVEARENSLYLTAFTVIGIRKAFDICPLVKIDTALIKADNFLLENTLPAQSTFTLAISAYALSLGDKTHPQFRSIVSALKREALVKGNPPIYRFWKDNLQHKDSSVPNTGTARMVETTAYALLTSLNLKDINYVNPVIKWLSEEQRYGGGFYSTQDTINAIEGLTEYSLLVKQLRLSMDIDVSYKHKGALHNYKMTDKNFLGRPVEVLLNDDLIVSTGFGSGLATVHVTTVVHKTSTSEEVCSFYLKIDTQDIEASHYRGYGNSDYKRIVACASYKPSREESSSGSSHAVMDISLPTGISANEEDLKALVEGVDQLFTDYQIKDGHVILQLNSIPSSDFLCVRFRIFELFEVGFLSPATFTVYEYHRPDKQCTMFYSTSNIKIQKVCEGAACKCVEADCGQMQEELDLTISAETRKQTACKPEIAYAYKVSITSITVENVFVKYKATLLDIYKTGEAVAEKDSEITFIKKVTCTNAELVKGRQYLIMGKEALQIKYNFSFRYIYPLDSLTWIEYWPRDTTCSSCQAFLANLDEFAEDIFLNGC

For `CCCCCOc1cc(N2CCCN(Cc3ccc(CNC(=O)OC4CC4)cc3OC)C2=O)ccc1OC` [CU0202], the IC50 was 0.0108 µM.
`CCCCCOc1cc(N2CCCN(C(C)c3ccnc4c3ccn4C3CCN(C)C3=O)C2=O)ccc1OC` (stereo not shown) [CU0040(1)] was tested, and the IC50 was 0.0665 µM.
Compound `CCCCCOc1cc(N2CCCN(Cc3ccc(CCOC(=O)N(C)C)cc3OC)C2=O)ccc1OC` [CU0204] has an IC50 of 0.0216 µM.
In the case of `COc1ccc(N2CCCCN(Cc3ccnc4c3ccn4CC(=O)N(C)C)C2=O)cc1OCCCC(C)C` [CU0038], the IC50 is reported as 0.267 µM.
In the case of `COc1cc(CC(=O)NC2CCN(C(C)=O)C2)ccc1CN1CCCN(c2ccc(OC)c(OCCCC(C)(F)F)c2)C1=O` (stereo not shown) [CU0142], the IC50 is reported as 0.0183 µM.
For `CCCCCOc1cc(N2CCCN(Cc3ccc(CNC(=O)C4CN(C)C4)cc3OC)C2=O)ccc1OC` [CU0191], the IC50 was 0.0879 µM.
With `CCCCCOc1cc(N2CCCN(Cc3ccnc4c3ccn4CC(=O)N3CCCOCC3)C2=O)ccc1C1CC1` [CU0054] the IC50 was 0.117 µM.
`CCCCCOc1cc(N2CCCN(Cc3ccc(CCOC(=O)N4CCCC4)cc3OC)C2=O)ccc1OC` [CU0138] showed an IC50 of 0.0554 µM.
For `COc1ccc(F)cc1CN1CCCN(c2ccc(OC)c(OCCC3CCCC3)c2)C1=O` [CU0185], the IC50 was 0.183 µM.
`CCCCCOc1cc(N2CCCN(Cc3cc(C4=CCNCC4)ccc3OC)C2=O)ccc1OC` [CU0151] showed an IC50 of 0.707 µM.
In the case of `CCCCCOc1cc(N2CCCN(Cc3ccc(CCn4ccnc4)cc3OC)C2=O)ccc1OC` [CU0139], the IC50 is reported as 0.0917 µM.
`CCCCCOc1cc(N2CCCN(Cc3ccc(CC(=O)N(C)C)cc3OC)C2=O)ccc1C1CC1` [CU0113] gave an IC50 of 0.0548 µM.
`CCC(F)(F)CCOc1cc(N2CCCN(Cc3ccc(CC(=O)N4CCCOCC4)cc3OC)C2=O)ccc1OC` [CU0174] gave an IC50 of 0.0367 µM.
`COc1ccc(N2CCCN(Cc3ccnc4c3ccn4CC(=O)N(C)C)C2=O)cc1OCC[C@@H]1C[C@@H]2CC[C@H]1C2` [CU0253] showed an IC50 of 0.0419 µM.
`CCCCCOc1cc(N2CCCN(Cc3ccc(Cl)cc3OC)C2=O)ccc1OC` [CU0166] showed an IC50 of 0.0921 µM.
Work on `CCCCCOc1cc(N2CCCN(Cc3cccc(-c4cnn(CC(C)C)c4)c3F)C2=O)ccc1OC` [CU0126] yielded an IC50 of 0.153 µM.
With `C=CCCCOc1cc(N2CCCN(Cc3cc(F)ccc3OC)C2=O)ccc1OC` [CU0167] the IC50 was 0.0399 µM.
With `COc1ccc(F)cc1CN1CCCN(c2ccc(OC)c(OCCc3ccccc3C)c2)C1=O` [CU0215] the IC50 was 0.0341 µM.
In the case of `COc1ccc(F)cc1CN1CCCN(c2ccc(OC)c(OCCc3cccc(C(F)(F)F)c3)c2)C1=O` [CU0220], the IC50 is reported as 0.254 µM.
`CCCCCOc1cc(N2CCCN(Cc3ccc(CCn4cnnn4)cc3OC)C2=O)ccc1OC` [CU0148] gave an IC50 of 0.036 µM.
`CCCCCOc1cc(N2CCCN(Cc3ccc(CN4CCOCC4)cc3OC)C2=O)ccc1OC` [CU0172] was tested, and the IC50 was 0.0373 µM.
With `COc1ccc(F)cc1CN1CCCN(c2ccc(OC)c(OCc3cccc(C)c3)c2)C1=O` [CU0181] the IC50 was 0.119 µM.
`CCCCCOc1cc(N2CCCN(Cc3cccc4nc(C)oc34)C2=O)ccc1OC` [CU0066] gave an IC50 of 0.243 µM.
Compound `CCCCCOc1cc(N2CCCN(Cc3ccc(CCO)cc3OC)C2=O)ccc1OC` [CU0159] has an IC50 of 0.0988 µM.
In the case of `COc1ccc(F)cc1CN1CCCN(c2ccc(OC)c(OCc3ccccc3)c2)C1=O` [CU0164], the IC50 is reported as 0.592 µM.
`COc1ccc(N2CCCN(Cc3ccnc4c3ccn4CC(=O)N(C)C)C2=O)cc1OCc1ccccc1` [CU0252] gave an IC50 of 0.825 µM.
In the case of `COc1ccc(F)cc1CN1CCCN(c2ccc(OC)c(OCc3ccccc3C)c2)C1=O` [CU0182], the IC50 is reported as 0.936 µM.
Work on `CCCCCOc1cc(N2CCCN(Cc3ccc(Cc4ncco4)cc3OC)C2=O)ccc1OC` [CU0208] yielded an IC50 of 0.0591 µM.
In the case of `CCCCCOc1cc(N2CCCN(Cc3ccnc4c3ccn4CCN3CCOC3=O)C2=O)ccc1OC` [CU0250], the IC50 is reported as 0.217 µM.
Work on `CCCCCOc1cc(N2CCCN(Cc3cc(C)cc4c3ccn4CC(=O)N(C)C)C2=O)ccc1OC` [CU0236] yielded an IC50 of 0.203 µM.
Compound `COc1cccc(COc2cc(N3CCCN(Cc4cc(F)ccc4OC)C3=O)ccc2OC)c1` [CU0227] has an IC50 of 0.362 µM.
Compound `CCCCCOc1cc(N2CCCN(Cc3ccnc4c3ccn4CC3CCCO3)C2=O)ccc1OC` (stereo not shown) [CU0248] has an IC50 of 0.101 µM.
`CCCCCOc1cc(N2CCN(C[C@@H](O)c3ccccc3)C2=O)ccc1OC` [CU0016] was tested, and the IC50 was 2.62 µM.
`COc1ccc(F)cc1CN1CCCN(c2ccc(OC)c(OCCc3ccc(C)cc3)c2)C1=O` [CU0219] was tested, and the IC50 was 0.221 µM.
`COc1ccc(F)cc1CN1CCCN(c2ccc(OC)c(OCc3cccc(OC(F)(F)F)c3)c2)C1=O` [CU0221] was tested, and the IC50 was 0.741 µM.
`CCCCCOc1cc(N2CCCN(Cc3cc(OC)cc(C4=CCNCC4)c3)C2=O)ccc1OC` [CU0156] gave an IC50 of 0.241 µM.
`CCCCCOc1cc(N2CCCN(Cc3ccc(CC(=O)N4CCCC4)cc3OC)C2=O)ccc1OC` [CU0006] showed an IC50 of 0.0195 µM.
In the case of `COc1ccc(F)cc1CN1CCCN(c2ccc(OC)c(OCCC[C@H]3C[C@H]3C)c2)C1=O` [CU0206], the IC50 is reported as 0.0119 µM.
For `COc1ccc(F)cc1CN1CCCN(c2ccc(OC)c(OCc3cccc(C(F)(F)F)c3)c2)C1=O` [CU0223], the IC50 was 0.4 µM.
In the case of `CCC#CCOc1cc(N2CCCN(Cc3cc(F)ccc3OC)C2=O)ccc1OC` [CU0169], the IC50 is reported as 0.0824 µM.
With `CCCCCOc1cc(N2CCCN(Cc3ccc(CC(=O)O)cc3OC)C2=O)ccc1OC` [CU0102] the IC50 was 0.0537 µM.
`CCCCCOc1cc(N2CCCN(Cc3ccc(Br)cc3OC)C2=O)ccc1OC` [CU0153] gave an IC50 of 0.233 µM.
For `COc1ccc(F)cc1CN1CCCN(c2ccc(OC)c(OCc3ccc(C)cc3)c2)C1=O` [CU0180], the IC50 was 0.411 µM.
In the case of `CCCCCOc1cc(N2CCCN(Cc3cccc(N4CCN(C)CC4)c3F)C2=O)ccc1OC` [CU0133], the IC50 is reported as 0.0822 µM.
With `COc1ccc(F)cc1CN1CCCN(c2ccc(OC)c(OCCCC3CCCCC3)c2)C1=O` [CU0222] the IC50 was 0.0699 µM.
For `CCCCCOc1cc(N2CCCN(Cc3ccnc4c3ccn4CC(=O)N3CCCOCC3)C2=O)ccc1OC` [CU0228], the IC50 was 0.0218 µM.
Compound `CCCCCOc1cc(N2CCCN(Cc3ccc(CNC(=O)OCC)cc3OC)C2=O)ccc1OC` [CU0192] has an IC50 of 0.0191 µM.
With `CCCCCOc1cc(N2CCN(Cc3ccnc4c3ccn4CC(=O)N3CCOC(COC)C3)C2=O)ccc1OC` (stereo not shown) [CU0047] the IC50 was 3.14 µM.
With `CCCCCOc1cc(N2CCCN(Cc3ccc(F)c(C4=CCNCC4)c3)C2=O)ccc1OC` [CU0144] the IC50 was 0.109 µM.
`CCCCCOc1cc(N2CCCN(Cc3ccc(F)c4c3ccn4CC(=O)N(C)C)C2=O)ccc1OC` [CU0230] was tested, and the IC50 was 0.0605 µM.
In the case of `CCCCCOc1cc(N2CCCN(Cc3ccc(CCOCCN4CCCC4)cc3OC)C2=O)ccc1OC` [CU0189], the IC50 is reported as 0.413 µM.
In the case of `CCCCCOc1cc(N2CCCN(Cc3cccc4c3ccn4C3CCN(C4CC4)C3=O)C2=O)ccc1OC` (stereo not shown) [CU0241], the IC50 is reported as 0.0107 µM.
For `COc1cc(Cl)ccc1CN1CCCN(c2ccc(OC)c(OCc3ccccc3)c2)C1=O` [CU0162], the IC50 was 2.87 µM.
`CCCCCOc1cc(N2CCCN(Cc3cccc4c3ccn4CC(=O)N(C)C3CCN(CC)C3)C2=O)ccc1OC` (stereo not shown) [CU0242] gave an IC50 of 0.0082 µM.
`C#CCCCOc1cc(N2CCCN(Cc3cc(F)ccc3OC)C2=O)ccc1OC` [CU0179] was tested, and the IC50 was 0.156 µM.
Work on `COc1ccc(F)cc1CN1CCCN(c2ccc(OC)c(OCCc3ccccc3)c2)C1=O` [CU0193] yielded an IC50 of 0.045 µM.
Compound `COc1ccc(N2CCCN(Cc3cccc4[nH]ccc34)C2=O)cc1OCCCC(C)(F)F` [CU0240] has an IC50 of 0.0422 µM.
`CCCCCOc1cc(N2CCN(Cc3ccnc4c3ccn4CC(=O)N3CCCOCC3)C2=O)ccc1OC` [CU0052] showed an IC50 of 0.0614 µM.
`CCCCCOc1cc(N2CCCN(Cc3ccc(CNC(=O)OC)cc3OC)C2=O)ccc1OC` [CU0137] gave an IC50 of 0.01 µM.
`CCCCCOc1cc(N2CCCN(Cc3ccnc4c3ccn4CCN3CCCC3)C2=O)ccc1OC` [CU0254] was tested, and the IC50 was 0.0187 µM.
With `COc1ccc(F)cc1CN1CCCN(c2ccc(OC)c(OCCCc3ccccc3)c2)C1=O` [CU0183] the IC50 was 0.238 µM.
`CCCCCOc1cc(N2CCCN(Cc3ccc(CC(=O)NC4CCN(C(C)=O)C4)cc3Cl)C2=O)ccc1OC` (stereo not shown) [CU0134] showed an IC50 of 0.0161 µM.
For `CCCCCOc1cc(N2CCCN(Cc3cccc(C4=CCNCC4)c3F)C2=O)ccc1OC` [CU0128], the IC50 was 0.0606 µM.
`COc1cc(F)ccc1CN1CCCN(c2ccc(OC)c(OCc3ccccc3)c2)C1=O` [CU0163] was tested, and the IC50 was 1 µM.
`COc1ccc(F)cc1CN1CCCN(c2ccc(OC)c(OCC3CCCC3)c2)C1=O` [CU0168] gave an IC50 of 0.233 µM.
`CCCCCOc1cc(N2CCCN(Cc3cccc(N4CCOCC4)c3F)C2=O)ccc1OC` [CU0132] gave an IC50 of 0.301 µM.
Work on `CCCCCOc1cc(N2CCCN([C@@H](C)c3cccc4c3ccn4CC(=O)N(C)C)C2=O)ccc1OC` [CU0233] yielded an IC50 of 4.26 µM.
In the case of `CCCCCOc1cc(N2CCCN(Cc3ccnc4c3ccn4CC(=O)N3CCCOCC3)C2=O)ccc1OC` [CU0053], the IC50 is reported as 0.0233 µM.
`CCC(F)(F)CCOc1cc(N2CCCN(Cc3ccc(CC(=O)N(C)C)cc3OC)C2=O)ccc1OC` [CU0171] gave an IC50 of 0.0451 µM.
In the case of `CCCCCOc1cc(N2CCCN(C(C)c3ccnc4c3ccn4C3CCN(C)C3=O)C2=O)ccc1OC` (stereo not shown) [CU0040(2)], the IC50 is reported as 0.0763 µM.
With `CCCCCOc1cc(N2CCCN(Cc3cccc4c3ccn4CC(=O)N(C)C)C2=O)ccc1C1CC1` [CU0026] the IC50 was 0.0625 µM.
Work on `CCC(F)(F)CCOc1cc(N2CCCN(Cc3ccccc3OC)C2=O)ccc1OC` [CU0176] yielded an IC50 of 0.111 µM.
In the case of `CCCCCOc1cc(N2CCCN(Cc3cccc4c3ccn4Cc3cccnc3)C2=O)ccc1OC` [CU0023], the IC50 is reported as 0.0207 µM.
With `COc1ccc(N2CCCN(Cc3ccnc4c3ccn4CC(=O)N(C)C)C2=O)cc1OCCCC(C)(F)F` [CU0262] the IC50 was 0.0346 µM.
`CCCCCOc1cc(N2CCN(Cc3ccnc4c3ccn4CC(=O)N3CCNC(=O)C3)C2=O)ccc1OC` [CU0058] gave an IC50 of 2.49 µM.
`CCCCCOc1cc(N2CCCN(Cc3ccc(CN(C)C(=O)OC)cc3OC)C2=O)ccc1OC` [CU0149] showed an IC50 of 0.0241 µM.
For `CCCCCOc1cc(N2CCCN(Cc3ccc(CC(=O)N4CCCOCC4)cc3OC)C2=O)ccc1C1CC1` [CU0114], the IC50 was 0.0991 µM.
With `CCCCCOc1cc(N2CCCN(Cc3cccc(-c4cnn(C5CCN(C)CC5)c4)c3OC)C2=O)ccc1OC` [CU0157] the IC50 was 0.146 µM.
`COc1ccc(F)cc1CN1CCCN(c2ccc(OC)c(OCCCC(F)(F)C(F)(F)F)c2)C1=O` [CU0195] was tested, and the IC50 was 0.049 µM.
Compound `CCCCCOc1cc(N2CCCN(Cc3ccc(CC(=O)NC4CCN(C(C)C)CC4)cc3Cl)C2=O)ccc1OC` [CU0135] has an IC50 of 0.0145 µM.
`CCC(F)(F)CCOc1cc(N2CCCN(Cc3ccc(CC(=O)N4CCO[C@H](COC)C4)cc3OC)C2=O)ccc1OC` [CU0197] was tested, and the IC50 was 0.0316 µM.
For `CCCCCOc1cc(N2CCCN(Cc3cccc(-c4cnn(C5COC5)c4)c3F)C2=O)ccc1OC` [CU0119], the IC50 was 0.052 µM.
